Where a name gives a salt, the structure may show the parent alone.
Experiments:
[1] = test system: heart; central nervous system (CNS); conditions: cited from earlier work
[2] = test system: tk locus (5-trifluorothymidine resistance) in mouse lymphoma cells; test: Mutation at the tk locus (5-trifluorothymidine resistance) in mouse lymphoma cells, fluctuation protocol, with and without S-9
Protocol: (§1) More specifically, levobupivacaine HCl was assayed for its ability to induce mutation at the tk locus (5-trifluorothymidine resistance) in mouse lymphoma cells using a fluctuation protocol. The study consisted of a cytotoxicity range-finder followed by two independent experiments, each conducted in the absence and presence of metabolic activation by an Aroclor 1254-induced rat liver post-mitochondrial fraction (S-9). For reference, bupivacaine HCl was tested concurrently in the cytotoxicity range-finder.
For reference, three doses of bupivacaine HCl were tested in the absence of S-9 (250, 500 and 750 μg/ml), and two doses in the presence of S-9 (250, 500 μg/ml). The lowest five doses of levobupivacaine HCl and all reference doses of bupivacaine HCl were selected to determined viability and 5-trifluorothymidine resistance, 2 days after treatment.
In the second experiment, the dose range was modified slightly for both levobupivacaine HCl and bupivacaine HCl.
Negative (solvent) and positive control treatments were included in each mutation experiment in the absence and presence of S-9.

[3] = Cytotoxicity range-finder (relative survival), with and without S-9; assay type: cell-based, mouse; conditions: mouse
Protocol: as §1
(§2) A wide range of concentrations were selected for the cytotoxicity range-finder experiments, separated by two-fold intervals and ranging from 31.25 to 1000 μg/ml for levobupivacaine HCl and from 62.5 to 2000 μg/ml for bupivacaine HCl (limited by solubility in both cases).

[4] = test system: mouse lymphoma cells; test: as above; assay type: cell-based
Protocol: as §1, §2

[5] = test system: patients requiring hernia repair; test: Further study in patients requiring hernia repair: rescue analgesia; assay type: in vivo, human
Protocol: In a further study, using levobupivacaine in patients requiring hernia repair, 45% of patients in the 0.5% levobupivacaine group compared with 73.3% of patients in the no block required at least one dose of rescue analgesia (p=0.167). The majority of the children who required rescue (91.4%) required two or fewer doses of rescue analgesia. […] The median patient in the 0.5% levobupivacaine group first requested rescue medication after at least 118 minutes, compared with 31 minutes in the no block group (p=0.041).

[6] = test system: heart; conditions: in vitro; Vanhoutte et al 1991, Denson et al 1992; cited from earlier work
[7] = test system: children having outpatient herniorrhaphy; test: Double-blind randomized placebo-controlled clinical study: IlIH nerve block in children having outpatient herniorrhaphy; assay type: in vivo, human (children ages 6 mo to 12 y)
Protocol: In a clinical study, the suitability of levobupivacaine in paediatric surgery was evaluated. This was a double-blind randomized, placebo-controlled study, to determine the safety and effectiveness of levobupivacaine for field block in children having outpatient herniorrhaphy. More specifically, otherwise healthy children ages 6 mo to 12 y presenting for outpatient herniorrhaphy were randomized to receive either ilioinguinal/iliohytpogastric (IlIH) nerve block(s) with 0.25 ml/kg 0.5% levobupivacaine per side operated, or no block, at the completion of surgery.

[8] = 0.25 ml/kg 0.5% per side operated, vs no block

CCCCN1CCCCC1C(=O)Nc1c(C)cccc1C (racemic) [bupivacaine]
CNS side-effects (in words) ([1]; at higher doses): undesirable central nervous system (CNS) side-effects | cardiotoxicity (in words) ([1]; background): cardiotoxic, having depressant electrophysiological and mechanical effects on the heart | death in patients (in words) ([1]; including women in childbirth and Bier's block): produced death in a number of patients | dosage limitation by cytotoxicity, summary [2]: limited by cytotoxicity | genotoxicity, summary [2]: positive for genotoxicity

O=[N+]([O-])c1cc[n+]([O-])c2ccccc12 [4-nitroquinoline 1-oxide]
mutation, positive control ([2]; without S-9): clear increases in mutation

c1ccc2c(c1)cc1ccc3cccc4ccc2c1c34 [benzo[a]pyrene]
mutation, positive control ([2]; with S-9): clear increases in mutation

CCCCN1CCCCC1C(=O)Nc1c(C)cccc1C (stereo not drawn) [bupivacaine HCl]
viability ([3]; absence of S-9, 500 μg/ml): 100% | viability ([3]; presence of S-9, 500 μg/ml): 12.4% | cytotoxicity (in words) ([4]; bupivacaine HCl (reference), top two doses, 1000 and 2000 μg/ml): completely toxic

CCCCN1CCCC[C@H]1C(=O)Nc1c(C)cccc1C [levobupivacaine HCl]
viability ([3]; absence of S-9, 1000 μg/ml): 150% | viability ([3]; presence of S-9, 1000 μg/ml): 9.1% | cell survival (in words) ([4]; 31.25 to 1000 μg/ml, absence and presence of S-9): Cells survived all doses | mutagenicity, overall conclusion [2]: not mutagenic

CCCCN1CCCC[C@H]1C(=O)Nc1c(C)cccc1C [levobupivacaine, (S)-1-butyl-N-(2,6-dimethylphenyl)-2-piperidinecarboxamide]
time to first request for rescue medication (in words) ([5]; 0.5% levobupivacaine group vs no block group): significantly longer | patients requiring at least one dose of rescue analgesia ([5]; 0.5% levobupivacaine group, no block 73.3%, p=0.167): 45% | median time to first request for rescue medication ([5]; 0.5% levobupivacaine group, no block 31 minutes, p=0.041): at least 118 minutes | genotoxicity, summary [2]: completely negative | cardiotoxicity relative to dextrobupivacaine and racemic bupivacaine [6]: less cardiotoxic than dextrobupivacaine and racemic bupivacaine | safety and effectiveness for IlIH block, conclusion ([7]; 0.25 ml/kg 0.5% levobupivacaine per side operated): safe and effective | adverse events specifically attributable to levobupivacaine ([7]; 0.25 ml/kg 0.5% per side operated): absence of any adverse events | interval to rescue analgesia [7, 8]: longer interval to rescue analgesia | rescue analgesic doses [7, 8]: fewer rescue analgesic doses | CHEOPS ([7]; at 15, 20, 30 and 60 min, 0.25 ml/kg 0.5% per side operated, vs no block): lower CHEOPS
